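96-well plates; 48 h exposure; 5 concentrations. Endpoints by linear interpolation between flanking doses. Not reached: highest tested concentration assigned. GI50 is the concentration that inhibits growth by half. TGI marks complete inhibition of growth.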
Legend:
Experiment in all cases: inhibition of tumour cell growth, NCI panel, 48 h
[1] = system: UO-31 renal
[2] = system: K-562 leukemia
[3] = system: HCT-15 colon
[4] = system: DU-145 prostate
[5] = system: U251 CNS
[6] = system: SK-MEL-28 melanoma
[7] = system: HCT-116 colon
[8] = system: ACHN renal
[9] = system: SK-OV-3 ovarian
[10] = system: MDA-MB-435
[11] = system: TK-10 renal
[12] = system: COLO 205 colon
[13] = system: NCI-H226 lung
[14] = system: CAKI-1 renal
[15] = system: NCI-H23 lung
[16] = system: RXF 393 renal
[17] = system: PC-3 prostate
[18] = system: HOP-92 NSCLC
[19] = system: MDA-MB-468 breast
[20] = system: MOLT-4 leukemia
[21] = system: HOP-62 NSCLC
[22] = system: OVCAR-3 ovarian
[23] = system: MCF7 breast
[24] = system: NCI-H460 lung
[25] = system: SNB-75 CNS
[26] = system: OVCAR-8 ovarian
[27] = system: UACC-62 melanoma
[28] = system: EKVX NSCLC
[29] = system: HCC-2998 colon
[30] = system: RPMI-8226 leukemia
[31] = system: SNB-19 CNS
[32] = system: SK-MEL-2 melanoma
[33] = system: A498 renal
[34] = system: 786-0 renal
[35] = system: SK-MEL-5 melanoma
[36] = system: UACC-257 melanoma
[37] = system: SN12C renal
[38] = system: NCI-H522 lung
[39] = system: BT-549 breast
[40] = system: MDA-MB-231 breast
[41] = system: SF-268 CNS
[42] = system: NCI/ADR-RES ovarian
[43] = system: CCRF-CEM leukemia
[44] = system: HS 578T breast
[45] = system: SF-295 CNS
[46] = system: A549 NSCLC
[47] = system: SR leukemia
[48] = system: T-47D breast
[49] = system: OVCAR-4 ovarian
[50] = system: M14 melanoma
[51] = system: KM12 colon
[52] = system: SF-539 CNS
[53] = system: MALME-3M melanoma
[54] = system: IGROV1 ovarian
[55] = system: HT29 colon
[56] = system: OVCAR-5 ovarian
[57] = system: LOX IMVI melanoma
[58] = system: SW-620 colon
[59] = system: HL-60(TB) leukemia

O=C(NNc1nc2cc(C(F)(F)F)ccc2n2cccc12)c1cnccn1
GI50 [1]: 0.0832 µM
TGI [1]: 1.57 µM
GI50 [2]: 0.356 µM
GI50 [3]: 0.0891 µM
TGI [3]: 1.55 µM
GI50 [4]: 0.526 µM
TGI [4]: 2.44 µM
GI50 [5]: 0.199 µM
TGI [5]: 2.21 µM
GI50 [6]: 0.478 µM
TGI [6]: 2.09 µM
GI50 [7]: 0.182 µM
TGI [7]: 1.32 µM
GI50 [8]: 0.217 µM
TGI [8]: 1.45 µM
GI50 [9]: 0.477 µM
TGI [9]: 1.86 µM
GI50 [10]: 0.807 µM
TGI [10]: 2.71 µM
GI50 [11]: 0.452 µM
TGI [11]: 1.77 µM
GI50 [12]: 0.364 µM
TGI [12]: 1.48 µM
GI50 [13]: 0.772 µM
TGI [13]: 3.9 µM
GI50 [14]: 0.299 µM
TGI [14]: 1.66 µM
GI50 [15]: 0.517 µM
TGI [15]: 2.03 µM
GI50 [16]: 1.05 µM
TGI [16]: 2.31 µM
GI50 [17]: 0.325 µM
TGI [17]: 2.19 µM
GI50 [18]: 0.33 µM
TGI [18]: 2.2 µM
GI50 [19]: 0.19 µM
TGI [19]: 0.661 µM
GI50 [20]: 0.235 µM
TGI [20]: 5.06 µM
GI50 [21]: 0.214 µM
TGI [21]: 1.92 µM
GI50 [22]: 0.287 µM
TGI [22]: 1.58 µM
GI50 [23]: 0.293 µM
TGI [23]: 1.5 µM
GI50 [24]: 0.116 µM
TGI [24]: 5.58 µM
GI50 [25]: 1.01 µM
TGI [25]: 2.88 µM
GI50 [26]: 0.365 µM
TGI [26]: 2.38 µM
GI50 [27]: 0.302 µM
TGI [27]: 1.57 µM
GI50 [28]: 0.176 µM
TGI [28]: 1.23 µM
GI50 [29]: 0.463 µM
TGI [29]: 2.03 µM
GI50 [30]: 0.29 µM
TGI [30]: 3.45 µM
GI50 [31]: 0.437 µM
TGI [31]: 2.54 µM
GI50 [32]: 0.475 µM
TGI [32]: 1.73 µM
GI50 [33]: 1.62 µM
TGI [33]: 3.34 µM
GI50 [34]: 0.365 µM
TGI [34]: 1.69 µM
GI50 [35]: 0.602 µM
TGI [35]: 1.96 µM
GI50 [36]: 0.501 µM
TGI [36]: 1.94 µM
GI50 [37]: 0.411 µM
TGI [37]: 2.07 µM
GI50 [38]: 0.248 µM
TGI [38]: 0.944 µM
GI50 [39]: 1.06 µM
TGI [39]: 3.41 µM
GI50 [40]: 0.438 µM
TGI [40]: 1.94 µM
GI50 [41]: 0.357 µM
TGI [41]: 3.9 µM
GI50 [42]: 0.255 µM
TGI [42]: 1.48 µM
GI50 [43]: 0.141 µM
TGI [43]: 1.95 µM
GI50 [44]: 1.5 µM
TGI [44]: 10.7 µM
GI50 [45]: 0.134 µM
TGI [45]: 1.59 µM
GI50 [46]: 0.424 µM
TGI [46]: 8.91 µM
GI50 [47]: 0.0469 µM
TGI [47]: 1.2 µM
GI50 [48]: 0.292 µM
TGI [48]: 1.72 µM
GI50 [49]: 0.266 µM
TGI [49]: 2.27 µM
GI50 [50]: 0.25 µM
TGI [50]: 1.37 µM
GI50 [51]: 0.341 µM
TGI [51]: 2.06 µM
GI50 [52]: 0.406 µM
TGI [52]: 1.98 µM
GI50 [53]: 1.14 µM
TGI [53]: 2.55 µM
GI50 [54]: 0.146 µM
TGI [54]: 1.6 µM
GI50 [55]: 0.553 µM
TGI [55]: 2.31 µM
GI50 [56]: 0.776 µM
TGI [56]: 2.49 µM
GI50 [57]: 0.128 µM
TGI [57]: 1.3 µM
GI50 [58]: 0.422 µM
TGI [58]: 2.47 µM
GI50 [59]: 0.166 µM
TGI [59]: 1.69 µM

From PubChem BioAssay (NCI)
